The numbers were not newly measured in patent publication US9339478B2, “Pharmaceutical formulation” (RECKITT BENCKISER LLC, priority 2011, dated 2016), which cites them from elsewhere.

The structures appear in SMILES notation.

For the data set the following is noted: per dose, typical.

As to `COc1ccc2c3c1O[C@H]1[C@@H](O)C=C[C@H]4[C@@H](C2)N(C)CC[C@@]341` [codeine], the “period of therapeutic effect / relief provided by a dose” value was 2.5 to 3 h.
